Laboratory results reported in publication PMC9147274 (Pharmaceuticals, 2022).

Key:
[1] = test system: A549; test: Cytotoxicity toward A549, MTT assay; format: cell-based, human; details: for IC50: Homo sapiens, A549, MTT, 48 h
Method: (§1) DMSO was used as vehicle control. […] All experiments were performed in triplicate. […] Cells were exposed for 48 h.
(§2) Table S1 The cytotoxicity of triazole-cored derivatives toward various human lung carcinoma cell lines A549, Thai human cholangiocarcinoma cells HuCCA-1, T-cell acute lymphoblastic leukemia MOLT-3, and acute promyelocytic leukemia HL-60. The inhibitory activities were indicated as IC50 in micromolar scale (µM). The calculated selectivity indices (SI) were reported in square brackets.
(§3) Cancer Cell lines, IC50 (µM), [SI]

[2] = test system: HuCCA-1; test: Cytotoxicity toward HuCCA-1, MTT assay; format: cell-based, human; details: for IC50: Homo sapiens, HuCC-A1, HuCCA-1, MTT, 48 h
Method: as §1, §2, §3

[3] = Cytotoxicity toward MRC-5, MTT assay; format: cell-based; details: human, MRC-5 cells, MRC-5 normal cells
Method: as §1

[4] = test system: HL-60; test: Cytotoxicity toward HL-60, XTT assay; format: cell-based, human; details: for IC50: Homo sapiens, HL-60, XTT, 48 h; for SI (HL-60): (IC50 for MRC-5)/(IC50 for HL-60)
Method: as §1, §2, §3

[5] = test system: MOLT-3; test: Cytotoxicity toward MOLT-3, XTT assay; format: cell-based, human; details: for IC50: Homo sapiens, MOLT-3, XTT, 48 h; for SI (MOLT-3): (IC50 for MRC-5)/(IC50 for MOLT-3)
Method: as §1, §2, §3

[6] = test system: HepG2; test: Cytotoxicity toward HepG2, MTT assay; details: for Cytotoxicity HepG2 Cell Viability at 25 µM: HepG2, 25 µM, MTT; for Cytotoxicity HepG2 Cell Viability at 25 µM / IC50: 72 h; for Selectivity index (SI): IC50 MRC-5 / IC50 HepG2; for IC50: read-out: Cytotoxicity HepG2 IC50, HepG2, MTT
Method: DMSO was used as vehicle control. […] All experiments were performed in triplicate. Data were expressed as the IC50 ± SD. […] Cells were exposed for 48 h.

[7] = test system: HepG2 cells; test: Cell-cycle analysis (propidium iodide, flow cytometry); format: cell-based, human; details: HepG2, 2 µM, 72 h
Method: The concentration of DMSO was kept at 0.5% v/v for all conditions. Cells were washed with PBS before they were harvested; 1 × 10^5 Cells were collected and fixed with 70% ice-cold ethanol, and then washed twice with ice-cold PBS. Afterward, the cells were treated with 100 g/mL of DNase-free RNase A (Sigma-Aldrich, St. Louis, MO, USA) in PBS containing 0.1% v/v Triton-X 100 (Sigma-Aldrich, St. Louis, MO, USA) for 5 min at room temperature and then stained with 20 g/mL propidium iodide (Life Technologies, Carlsbad, CA, USA) in PBS containing 0.1% v/v Triton-X 100 for 15 min at room temperature while protected from light. Cell-cycle distribution was then analyzed with a flow cytometer (Attune NxT, Thermo Fischer Scientific, Waltham, MA, USA). Data were analyzed with Attune NxT Software (Thermo Fischer Scientific, Waltham, MA, USA). All experiments were performed in triplicate. Student’s t-test was used for statistical analysis; p < 0.05 was considered statistically significant [96].

[8] = test system: HepG2 cells; test: Detection of apoptosis (Muse Annexin V & Dead Cell Kit); format: cell-based, human; details: 48 h; for average percentage of apoptotic cells (total, early and late apoptosis): untreated 22.35 ± 0.07%
Method: Based on annexin V reactivity and the intensity of the 7-AAD fluorescence, cells can be classified into four categories: dead, live, early apoptosis, and late apoptosis. […] The detection of apoptosis was performed by the Muse® Annexin V & Dead Cell Kit according to the manufacturer’s protocol (Millipore, Billerica, MA, USA). […] An amount of 100 µL of HepG2 cells in suspension and 100 µL of Muse Annexin V & Dead Cell reagent were added to a 1.5 mL tube. The apoptosis was measured using the Muse cell analyzer and Muse analysis software (Millipore, Billerica, MA, USA). Cells were classified into four groups: live (Annexin V− and 7-AAD−), early apoptosis (Annexin V+ and 7-AAD−), late apoptosis (Annexin V+ and 7-AAD+), and dead or necrotic (Annexin V− and 7-AAD+). The apoptosis experiment was performed in duplicate.

[9] = cited from earlier work
[10] = test system: HepG2 cells; test: Cell morphology by light microscopy; details: 48 h, 2.5-10.0 µM

SMILES | IC50 [1] [µM] | IC50 [2] [µM] | IC50 at 48 h [3] [µM] | IC50 [4] [µM] | IC50 [5] [µM] | other results
O=C(NCc1cn(-c2ccccc2)nn1)Nc1ccc(Cl)c(C(F)(F)F)c1 [Compound 2a] | > 100 | > 100 | > 100 | > 100 | > 100 | 
O=C(NCc1cn(-c2ccccc2F)nn1)Nc1ccc(Cl)c(C(F)(F)F)c1 [Compound 2b, 1-(4-chloro-3-(trifluoromethyl)phenyl)-3-((1-(2-fluorophenyl)-1H-1,2,3-triazol-4-yl)methyl)urea] |  |  |  |  |  | melting point: 168 to 169 °C
O=C(NCc1cn(-c2ccccc2F)nn1)Nc1ccc(Cl)c(C(F)(F)F)c1 [Compound 2b] | 77.3 ± 1.76 | 69.2 ± 19.2 | 73.5 ± 9.14 | 40.6 ± 4.64 | 25.3 ± 1.38 | 
O=C(NCc1cn(-c2cccc(F)c2)nn1)Nc1ccc(Cl)c(C(F)(F)F)c1 [Compound 2c] | 69.4 ± 2.44 | 44.9 ± 3.84 | 61.6 ± 3.63 | 34.1 ± 11.3 | 18.4 ± 0.36 | 
O=C(NCc1cn(-c2ccc(F)cc2)nn1)Nc1ccc(Cl)c(C(F)(F)F)c1 [Compound 2d] | 57.4 ± 8.36 | 55.4 ± 6.49 | 59.3 ± 1.96 | 35 ± 9.04 | 20.5 ± 1.23 | 
O=C(NCc1cn(-c2ccccc2Cl)nn1)Nc1ccc(Cl)c(C(F)(F)F)c1 [Compound 2e] |  |  | 61.4 ± 3.51 | 52.1 ± 13.9 |  | 
O=C(NCc1cn(-c2cccc(Cl)c2)nn1)Nc1ccc(Cl)c(C(F)(F)F)c1 [Compound 2f] |  |  | 63.8 ± 3.53 | 37.5 ± 2.23 |  | 
O=C(NCc1cn(-c2ccc(Cl)cc2)nn1)Nc1ccc(Cl)c(C(F)(F)F)c1 [Compound 2g] | 83 ± 2.7 | 33.6 ± 1.83 | 14.6 ± 4.17 | > 100 | > 100 | 
O=C(NCc1cn(-c2ccccc2Br)nn1)Nc1ccc(Cl)c(C(F)(F)F)c1 [Compound 2h] |  |  | 52.9 ± 3.1 | 37.7 ± 3.88 |  | 
O=C(NCc1cn(-c2cccc(Br)c2)nn1)Nc1ccc(Cl)c(C(F)(F)F)c1 [Compound 2i] |  |  | 53 ± 3.31 | 35.75 ± 0.34 |  | 
O=C(NCc1cn(-c2ccc(Br)cc2)nn1)Nc1ccc(Cl)c(C(F)(F)F)c1 [Compound 2j] | 33.8 ± 2.29 | 10.8 ± 0.36 | 60.7 ± 1.88 | 76 ± 22.6 | 53.4 ± 24.3 | 
O=C(NCc1cn(-c2ccccc2I)nn1)Nc1ccc(Cl)c(C(F)(F)F)c1 [Compound 2k] |  |  | 49.1 ± 2.95 | 37.4 ± 2.36 |  | 
O=C(NCc1cn(-c2cccc(I)c2)nn1)Nc1ccc(Cl)c(C(F)(F)F)c1 [Compound 2l] |  |  | 49.2 ± 2.13 | 33.2 ± 0.58 |  | 
O=C(NCc1cn(-c2ccc(I)cc2)nn1)Nc1ccc(Cl)c(C(F)(F)F)c1 [Compound 2m] |  |  | 49.9 ± 6.61 | 49.8 ± 7.19 | 29.9 ± 1.51 | 
O=C(NCc1cn(-c2ccccc2O)nn1)Nc1ccc(Cl)c(C(F)(F)F)c1 [Compound 2n] |  |  |  | 51.1 ± 1.77 | 39.4 ± 3.52 | 
O=C(NCc1cn(-c2cccc(O)c2)nn1)Nc1ccc(Cl)c(C(F)(F)F)c1 [Compound 2o] |  |  |  | 39.2 ± 2.72 | 28.3 ± 4.51 | 
O=C(NCc1cn(-c2ccc(O)cc2)nn1)Nc1ccc(Cl)c(C(F)(F)F)c1 [Compound 2p] | 85.9 ± 7.24 | 87.43 ± 0.79 | 69.6 ± 5.66 | 32.9 ± 7.77 | 22.5 ± 1.85 | 
COc1ccccc1-n1cc(CNC(=O)Nc2ccc(Cl)c(C(F)(F)F)c2)nn1 [Compound 2q] |  |  | 68 ± 5.14 | 42.4 ± 2.18 |  | 
COc1cccc(-n2cc(CNC(=O)Nc3ccc(Cl)c(C(F)(F)F)c3)nn2)c1 [Compound 2r] |  |  | 76.1 ± 9.18 | 42.8 ± 1.95 |  | 
COc1ccc(-n2cc(CNC(=O)Nc3ccc(Cl)c(C(F)(F)F)c3)nn2)cc1 [Compound 2s] |  |  | 21.2 ± 2.51 | > 100 |  | 
Cc1ccccc1-n1cc(CNC(=O)Nc2ccc(Cl)c(C(F)(F)F)c2)nn1 [Compound 2t] |  |  | 61.7 ± 3.22 | 45 ± 4.03 |  | 
CC(=O)Nc1ccc(-n2cc(CNC(=O)Nc3ccc(Cl)c(C(F)(F)F)c3)nn2)cc1 [Compound 2u, N-(4-(4-((3-(4-chloro-3-(trifluoromethyl)phenyl)ureido)methyl)-1H-1,2,3-triazol-1-yl)phenyl)acetamide] |  |  |  |  |  | melting point: 238 to 239 °C
Cc1cccc(-n2cc(CNC(=O)Nc3ccc(Cl)c(C(F)(F)F)c3)nn2)c1 [Compound 2u] |  |  |  | > 100 |  | 
Cc1ccc(-n2cc(CNC(=O)Nc3ccc(Cl)c(C(F)(F)F)c3)nn2)cc1 [Compound 2v] |  |  | 99.9 ± 0.9 | > 100 | 91.1 ± 1.66 | 
O=C(NCc1cn(-c2ccccc2C(F)(F)F)nn1)Nc1ccc(Cl)c(C(F)(F)F)c1 [Compound 2w] |  |  | 58.8 ± 0.39 | 34.5 ± 0.73 | 30.6 ± 0.8 | 
O=C(NCc1cn(-c2cccc(C(F)(F)F)c2)nn1)Nc1ccc(Cl)c(C(F)(F)F)c1 [Compound 2x, 1-(4-chloro-3-(trifluoromethyl)phenyl)-3-((1-(3-(trifluoromethyl)phenyl)-1H-1,2,3-triazol-4-yl)methyl)urea] |  |  | 63.2 ± 1.57 | 28.8 ± 7.46 | 27.8 ± 4.56 | SI (HL-60) [4]: 2.19; melting point: 152 to 153 °C; Cytotoxicity HepG2 Cell Viability at 25 µM [6]: 81%; SI (MOLT-3) [5]: 2.28
O=C(NCc1cn(-c2ccc(C(F)(F)F)cc2)nn1)Nc1ccc(Cl)c(C(F)(F)F)c1 [Compound 2y, 1-(4-chloro-3-(trifluoromethyl)phenyl)-3-((1-(4-(trifluoromethyl)phenyl)-1H-1,2,3-triazol-4-yl)methyl)urea] |  |  | 58.6 ± 3.51 | 19.4 ± 0.5 | 18.1 ± 0.45 | SI (HL-60) [4]: 3.02; melting point: 199 to 200 °C; Selectivity index (SI) [6]: 9.81; IC50 [6]: 5.97 ± 2.14 µM; SI (MOLT-3) [5]: 3.23
N#Cc1ccccc1-n1cc(CNC(=O)Nc2ccc(Cl)c(C(F)(F)F)c2)nn1 [Compound 2z, 1-(4-chloro-3-(trifluoromethyl)phenyl)-3-((1-(2-cyanophenyl)-1H-1,2,3-triazol-4-yl)methyl)urea] |  |  | 59.7 ± 6.63 | 56.4 ± 10.9 |  | SI (HL-60) [4]: 1.06; melting point: 162 to 163 °C; Cytotoxicity HepG2 Cell Viability at 25 µM [6]: 66%
COc1cccc2c1C(=O)c1c(O)c3c(c(O)c1C2=O)C[C@@](O)(C(=O)CO)C[C@@H]3O[C@H]1C[C@H](N)[C@H](O)[C@H](C)O1 [Doxorubicin, reference compound] | 0.47 ± 0.02 | 1.21 ± 0.04 | 2.26 | 0.12 ± 0.02 | 0.01 | SI (A549) ([1]; (IC50 for MRC-5)/(IC50 for A549)): 4.81; SI (HuCCA-1) ([2]; (IC50 for MRC-5)/(IC50 for HuCCA-1)): 1.87; SI (HL-60) [4]: 18.83; Selectivity index (SI) [6]: 3.83; IC50 [6]: 0.59 ± 0.1 µM; SI (MOLT-3) [5]: 226
CNC(=O)c1cc(Oc2ccc(NC(=O)Nc3ccc(Cl)c(C(F)(F)F)c3)cc2)ccn1 [Sorafenib] | 19.65 ± 0.01 | 33.2 ± 1.45 | 19.7 ± 1.68 | 5.35 ± 0.38 |  | Effect on cell cycle [7]: induced S and G2/M phase cell-cycle arrest; Late Apop./Dead (late stage apoptotic cells) ([8]; HepG2, 2.5 µM): 7.60%; average percentage of apoptotic cells (total, early and late apoptosis) ([8]; HepG2, 2.5 µM): 24.55 ± 0.28%; Late Apop./Dead (late stage apoptotic cells) ([8]; HepG2, 10.0 µM): 13.65%; average percentage of apoptotic cells (total, early and late apoptosis) ([8]; HepG2, 10.0 µM): 46.45 ± 0.78%; bioavailability [9]: 38–49%; Cell morphology changes of HepG2 [10]: cell morphology changes (shrink and smaller in size) were observed after treating HepG2 with Sorafenib at 5.0 µM and 10.0 µM; IC50 [6]: 5.97 ± 0.71 µM
